Among the data in ChEMBL document CHEMBL1127066, “Discovery and structure-activity relationship of a series of 1-carba-1-dethiacephems exhibiting activity against methicillin-resistant Staphylococcus aureus” (J Med Chem, 1993) are MIC values, retold here.

What all share (format): functional
In test [1] the test system is Staphylococcus epidermidis. Kind of test: In vitro antimicrobial activity against Staphylococcus epidermidis 222 strain.
The subject of test [2] is Streptococcus pneumoniae. Kind of test: In vitro antimicrobial activity against Streptococcus pneumoniae PARK strain.
For test [3], the system named is Pseudomonas aeruginosa. Nature of the test: In vitro antimicrobial activity against Pseudomonas X239 strain.
Test [4] relates to Haemophilus influenzae. Nature of the test: In vitro antimicrobial activity against Haemophilus influenzae C.L. strain.
The subject of test [5] is Klebsiella. Kind of test: In vitro antimicrobial activity against Klebsiella X26 strain.
The test system of test [6] is Enterobacter cloacae. Kind of test: In vitro evaluation of antimicrobial activity against Enterobacter cloacae EB5 strain.
Test [7] relates to Staphylococcus aureus. Nature of the test: In vitro antimicrobial activity against Staphylococcus aureus X1.1 strain.
Test [8] relates to Staphylococcus aureus. Kind of test: In vitro antimicrobial activity against Staphylococcus aureus X400 strain.
The test system of test [9] is Escherichia coli. Kind of test: In vitro evaluation of antimicrobial activity against Escherichia coli EC14 strain.
Test [10] deals with Staphylococcus epidermidis. Kind of test: In vitro antimicrobial activity against Staphylococcus epidermidis 270 strain.
Test [11] has as its system Staphylococcus aureus. Nature of the test: In vitro antimicrobial activity against Staphylococcus aureus S13E strain.
For test [12], the system named is Pseudomonas aeruginosa. Nature of the test: Antimicrobial activity against Pseudomonas PS18 strain.

As for `CCOc1ccc2nc(SC3=C(C(=O)[O-])N4C(=O)[C@@H](NC(=O)/C(=N/OCCF)c5csc(N)n5)[C@H]4CC3)sc2c1.[Na+]`, the MIC is 1 µg/mL in [1]; < 0.008 µg/mL in test [2]; > 128 µg/mL in test [3]; 0.125 µg/mL in test [4]; 0.06 µg/mL in test [5]; 4 µg/mL in [6]. Also, the MIC in test [7] came to 0.25 µg/mL; in test [8], 8 µg/mL; in test [9], 1 µg/mL; in test [10], 0.5 µg/mL; in test [11], 8 µg/mL; in [12] it was 128 µg/mL.
As for `Cn1ccnc1SC1=C(C(=O)[O-])N2C(=O)[C@@H](NC(=O)/C(=N/OCCF)c3csc(N)n3)[C@H]2CC1.[Na+]`, the MIC in test [1] was 8 µg/mL; in test [2] it was < 0.008 µg/mL; in test [3], > 128 µg/mL; in [4], 0.03 µg/mL; in [5], 0.06 µg/mL; in [6] it was 4 µg/mL. The MIC in test [7] was 4 µg/mL; in [8] it was > 128 µg/mL; in test [9] it was 0.5 µg/mL; in [10], 32 µg/mL; in test [12], > 128 µg/mL.
For the compound `Nc1nc(/C(=N\OCCF)C(=O)N[C@@H]2C(=O)N3C(C(=O)[O-])=C(Sc4nc(C(=O)OCc5ccccc5)cs4)CC[C@H]23)cs1.[Na+]`, the MIC is 0.5 µg/mL in test [1]; < 0.008 µg/mL in [2]; 128 µg/mL in [3]; 0.03 µg/mL in test [4]; 0.015 µg/mL in test [5]; 2 µg/mL in test [6]. The MIC was 0.25 µg/mL in [7]; 32 µg/mL in test [8]; 0.25 µg/mL in test [9]; 2 µg/mL in test [10]; 8 µg/mL in test [11]; 64 µg/mL in test [12].
Turning to `Nc1nc(/C(=N\OCCF)C(=O)N[C@@H]2C(=O)N3C(C(=O)[O-])=C(Sc4nccnc4N)CC[C@H]23)cs1.[Na+]`, the MIC is 1 µg/mL in test [1]; < 0.008 µg/mL in [2]; 128 µg/mL in test [3]; 0.015 µg/mL in test [4]; 0.015 µg/mL in test [5]; 1 µg/mL in [6]. Also, the MIC in test [7] was 0.5 µg/mL; in test [8] it was > 128 µg/mL; in [9] it was 0.125 µg/mL; in test [10], 4 µg/mL; in test [11] it was 32 µg/mL; in [12], 16 µg/mL.
Consider `Nc1nc(/C(=N\OCCF)C(=O)N[C@@H]2C(=O)N3C(C(=O)[O-])=C(Sc4ccccc4)CC[C@H]23)cs1.[Na+]`, for which the MIC in test [1] stood at 2 µg/mL; in [2] it was 0.015 µg/mL; in test [3] it was 128 µg/mL; in test [4], 0.03 µg/mL; in [5] it was 0.03 µg/mL; in test [6] it was 4 µg/mL. Besides, the MIC in test [7] was 0.5 µg/mL; in test [8] it was 128 µg/mL; in test [9], 0.5 µg/mL; in test [10] it was 2 µg/mL; in [11], 64 µg/mL; in [12] it was 64 µg/mL.
In the case of `CCCCOC(=O)c1csc(SC2=C(C(=O)[O-])N3C(=O)[C@@H](NC(=O)/C(=N/OCCF)c4csc(N)n4)[C@H]3CC2)n1.[Na+]`, the MIC in test [1] is 1 µg/mL; in test [2] it was < 0.008 µg/mL; in test [3], > 128 µg/mL; in [4] it was 0.03 µg/mL; in [5], 0.03 µg/mL; in [6], 4 µg/mL. Besides, the MIC in [7] turned out to be 0.5 µg/mL; in [8], 64 µg/mL; in [9], 0.5 µg/mL; in test [10], 4 µg/mL; in test [11], 16 µg/mL; in test [12] it was 128 µg/mL.
Take `COC(=O)c1sc(SC2=C(C(=O)[O-])N3C(=O)[C@@H](NC(=O)/C(=N/OCCF)c4csc(N)n4)[C@H]3CC2)nc1C.[Na+]`: the MIC is 2 µg/mL in test [1]; < 0.008 µg/mL in test [2]; > 128 µg/mL in test [3]; 0.06 µg/mL in test [4]; 0.125 µg/mL in test [5]; 8 µg/mL in [6]. The MIC in test [7] was 0.25 µg/mL; in test [8], 128 µg/mL; in test [9] it was 2 µg/mL; in [10], 8 µg/mL; in [11], 16 µg/mL; in [12], > 128 µg/mL.
With `Nc1nc(/C(=N\OCCF)C(=O)N[C@@H]2C(=O)N3C(C(=O)[O-])=C(Sc4cccc[n+]4[O-])CC[C@H]23)cs1.[Na+]`, the MIC in [1] is 2 µg/mL; in test [2] it was 0.15 µg/mL; in test [3], > 128 µg/mL; in test [4], 0.015 µg/mL; in test [5], 0.06 µg/mL; in test [6], 2 µg/mL. Also, the MIC in test [7] was 2 µg/mL; in test [8], 128 µg/mL; in [9] it was 0.125 µg/mL; in test [10] it was 8 µg/mL; in test [11], 64 µg/mL; in test [12], 128 µg/mL.
In the case of `CCOc1nn(C)c(SC2=C(C(=O)[O-])N3C(=O)[C@@H](NC(=O)/C(=N/OCCF)c4csc(N)n4)[C@H]3CC2)nc1=O.[Na+]`, the MIC in [1] was found to be 4 µg/mL; in test [2], 0.03 µg/mL; in [3] it was 128 µg/mL; in [4] it was 0.03 µg/mL; in test [5], 0.06 µg/mL; in [6], 2 µg/mL. Further, the MIC is 0.5 µg/mL in test [7]; > 128 µg/mL in test [8]; 0.5 µg/mL in test [9]; 16 µg/mL in test [10]; 128 µg/mL in test [11]; > 128 µg/mL in test [12].
